From PubChem BioAssay (NCI)
“And” between values parts separate entries of the source, which are not always exact repeats. Equal values may be shown once.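 The compound was tested at five concentrations on cells cultured in 96-well plates, with a 48-hour exposure period. At the GI50, growth is halved. Definition used: TGI = concentration required for complete inhibition of growth.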

Legend:
Assay in all cases: NCI anticancer screen, dose series, 48 h
NCI-H522 lung = tested on: NCI-H522 lung
T-47D breast = tested on: T-47D breast
HL-60(TB) leukemia = tested on: HL-60(TB) leukemia
IGROV1 ovarian = tested on: IGROV1 ovarian
HS 578T breast = tested on: HS 578T breast
SK-MEL-28 melanoma = tested on: SK-MEL-28 melanoma
UO-31 renal = tested on: UO-31 renal
NCI/ADR-RES ovarian = tested on: NCI/ADR-RES ovarian

SMILES | GI50 (NCI-H522 lung) | TGI (NCI-H522 lung) | GI50 (T-47D breast) | TGI (T-47D breast) [µM] | GI50 (HL-60(TB) leukemia) | TGI (HL-60(TB) leukemia) [µM] | GI50 (IGROV1 ovarian) | TGI (IGROV1 ovarian) [µM] | GI50 (HS 578T breast) | TGI (HS 578T breast) | GI50 (SK-MEL-28 melanoma) | GI50 (UO-31 renal) | TGI (UO-31 renal) | GI50 (NCI/ADR-RES ovarian) | TGI (NCI/ADR-RES ovarian) | TGI (SK-MEL-28 melanoma) [µM]
CC(=O)Nc1cccc(-n2c(=O)n(C3CC3)c(=O)c3c(Nc4ccc(I)cc4F)n(C)c(=O)c(C)c32)c1 | 3790 nM and > 2330 nM | 22 µM and > 10 µM | 14.9 µM and > 10 µM | > 77 | < 10 nM and 1.41 nM | > 41.7 | 34 nM and 22.1 nM | > 81.6 | 4.06 µM and 4.64 µM | 43.8 µM and > 10 µM | < 10 nM and 1.8 nM | 141 nM and 65.4 nM | 10.1 µM and > 10 µM | 2290 nM and > 10000 nM | 40.6 µM and > 10 µM | 
CN(C)CC(=O)N1CCC(c2ccc(NC(=O)c3ncc(C#N)[nH]3)c(C3=CCCCC3)c2)CC1 | 7880 nM | 23.1 µM | 11.9 µM | 28.8 | 2990 nM | 8.86 | 7480 nM | 25.7 | 2.18 µM | 12.4 µM | 2200 nM | 3610 nM | 15 µM | 14800 nM | 33.8 µM | 4.68
O=C(CSc1nc2ccc([N+](=O)[O-])cc2[nH]1)Nc1ccc(F)c(Cl)c1 | 2370 nM | 12.4 µM | 1.11 µM | 10.2 | 2210 nM | 6.26 | 2650 nM | 14.6 | 2.45 µM | 9.63 µM | 2680 nM | 1690 nM | 7.8 µM | 2310 nM | 8.23 µM | 12.9
CCc1c2c(nc3cc4c(cc13)OCO4)-c1cc3c(c(=O)n1C2)COC(=O)[C@]3(O)CC |  |  | < 0.001 µM |  | < 1 nM |  | 330 nM and 390 nM | > 100 |  | > 100 µM | 764 nM and 1140 nM | 10.3 nM | 0.401 µM and 0.0689 µM |  |  | > 100
COC1(C(=O)N2Cc3nc(Cl)nc(N[C@H](C)c4cc(N)cc(C(F)(F)F)c4)c3C2)CCOCC1 | 9230 nM | 55.2 µM | 20.8 µM | 83.5 | 22600 nM | 66.4 | 13500 nM | 43.8 | 17.7 µM | 80.3 µM | 16200 nM | 7630 nM | 43.3 µM | 24600 nM | > 94.5 µM | 30.9
Cc1ccc2c(C(C[N+](=O)[O-])c3cccs3)c(-c3ccccc3)[nH]c2c1 (stereo not drawn) | 1230 nM | 8.03 µM | 2.22 µM | 27.4 | 1140 nM | 14.6 | 1120 nM | 5.81 | 1.57 µM | 9.53 µM | 2990 nM | 2030 nM | 6.68 µM | 984 nM | 3.68 µM | 8.41
Nc1n[nH]c2ccc([C@@H]3Nc4ccc5[nH]ncc5c4[C@H]4[C@H]5CCC(C5)[C@H]43)cc12 | 310 nM | 3.57 µM |  |  | 247 nM | 0.654 | 513 nM | > 51.6 | 0.31 µM | 12.7 µM | 910 nM | 698 nM | 46.5 µM | 525 nM | > 44.1 µM | > 76.3
COc1ccc(C(=O)Nc2ncc(Cc3ccc(Cl)cc3)s2)cc1 | 57.3 nM | > 37.8 µM |  |  | 34.7 nM |  | 82.5 nM | > 100 | 0.0407 µM | > 77 µM | 2120 nM | 910 nM | > 100 µM | 45.7 nM |  | > 100
O=C(/C=C/c1ccc(Cl)cc1)c1ccc(Cl)cc1Cl | 8150 nM | 16.8 µM | 3.25 µM | 22.3 | 7250 nM | 27.9 | 987 nM | 14.6 | 11.7 µM | 25.9 µM |  | 7620 nM | 14.4 µM | 331 nM | 15.5 µM | 
COc1cc2c3c(cccc3c1)C(=O)N(CCN1CCCC1)C2=O | 2300 nM | 5.78 µM | 2.5 µM | 8.76 | 3650 nM | 61 | 2660 nM | 6.78 | 3.98 µM | 13 µM | 1840 nM |  |  | 2250 nM | 8.04 µM | 3.43
O=C(Nc1cccc(-n2ccc3c(NC(=O)c4ccccc4)nccc32)c1)c1cccc(C(F)(F)F)c1 | 19.9 nM | 0.0759 µM |  |  | 34.3 nM | 0.653 | 84.4 nM | > 46.9 | 0.0305 µM | 3.28 µM | 55.8 nM | 312 nM | 16 µM | 32.7 nM | > 100 µM | 4.04
C=C1C(O)C2CCC(C)(C)C(=O)C2=C(CC(C)C)C12CC2 (stereo not drawn) | 36600 nM | > 100 µM |  |  |  |  | > 100000 nM | > 100 | 18.9 µM | 92.9 µM | 43600 nM | 66100 nM | > 100 µM | 45400 nM | > 100 µM | > 100
O=C(CCN1CCN(c2cnc3ccccc3n2)CC1)c1csc2ccccc12 | 18400 nM | 42.8 µM | 18.2 µM | 43.4 | 35200 nM | > 100 |  |  | 43.6 µM | > 100 µM | 20000 nM | 25100 nM | 77.5 µM | > 100000 nM | > 100 µM | 42.7
NC(N)=N/N=C(/c1ccccc1)c1ccc(F)cc1 | 267 nM | 1.45 µM |  |  | 3670 nM |  | 528 nM | 13.5 | 0.452 µM | 27.7 µM | 528 nM | 991 nM | 14.6 µM | 766 nM | 4.19 µM | 23
CNC(=O)c1ccccc1CC1(O)c2ccccc2Oc2ccccc21 | 8390 nM | 37.3 µM | 21.5 µM | > 100 |  |  | 26400 nM | > 100 | 16.6 µM | 57.1 µM | 23200 nM | 29400 nM | > 100 µM | 10100 nM | 86.9 µM | > 100
COc1ccc(/C=C/C=C(/C#N)C(N)=S)cc1 | 26100 nM | 58.3 µM | 18.8 µM | 76.9 | 26000 nM | > 100 | 28300 nM | > 100 | 62.5 µM | > 100 µM | 23800 nM | 21600 nM | 45.2 µM |  |  | 65.7
O=C1/C(=C/c2ccc(F)cc2)CCOc2ccc([N+](=O)[O-])cc21 | 1910 nM | 4.14 µM |  |  |  |  | 3150 nM | 10.8 | 4.94 µM | 47.1 µM |  | 2060 nM | 5.03 µM | 2120 nM | 4.99 µM | 
